Several values for one entry are separate records, joined by “and”; a condition that tells them apart may be missing. Equal entries are not always repeated. Where two headings read alike, the source gives them in different places. Peptide text beside a SMILES is read from it. * marks the point of attachment. Cbz = O=C(OCc1ccccc1)*
Legend:
Chk1 [1] = target: T1, Chk1 (Homo sapiens, UniProt O14757); assay: HCIF-CETSA (CETSA by immunofluorescence), low well volume heating, HT29 cells; assay type: cell-based; design: Thermal response profile of Chk1 in HT29 cells detected by immunofluorescent imaging with the EP691Y antibody; endogenous in cells; host or cells: HT29; settings: for EC50: 25 μL media
T1 sequence (O14757 1-476): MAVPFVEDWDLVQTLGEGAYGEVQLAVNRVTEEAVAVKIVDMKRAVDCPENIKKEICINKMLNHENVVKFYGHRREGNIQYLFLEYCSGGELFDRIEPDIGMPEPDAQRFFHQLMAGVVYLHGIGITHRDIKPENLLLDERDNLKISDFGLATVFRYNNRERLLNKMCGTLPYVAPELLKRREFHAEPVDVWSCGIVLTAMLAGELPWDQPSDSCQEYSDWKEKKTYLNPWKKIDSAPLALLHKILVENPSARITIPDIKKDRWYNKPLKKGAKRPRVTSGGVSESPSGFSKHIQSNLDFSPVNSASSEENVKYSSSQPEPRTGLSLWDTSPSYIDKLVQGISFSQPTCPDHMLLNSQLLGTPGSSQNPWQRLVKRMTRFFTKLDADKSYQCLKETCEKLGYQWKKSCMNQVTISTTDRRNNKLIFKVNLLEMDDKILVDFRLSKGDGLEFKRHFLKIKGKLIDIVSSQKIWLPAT
Method: Compounds were serially diluted in DMSO to 200-times the final assay concentration then diluted 1:200 in media (without FCS). The cell media was removed and replaced with 25 μL of compound in media and incubated at 37°C, 5% CO2 for 10 minutes. The plate was sealed with an aluminum plate seal and heated by floating in a pre-heated water bath (Grant Instruments W14) for 3 minutes. 75 μL of room temperature media (without FCS or compound) was added and the plate incubated at room temperature for 5 minutes. […] Plates were imaged on an Operetta high content imager using a 20x objective and analyzed using Harmony software.

Chk1 [2] = target: T1, Chk1; assay: Chk1 autophosphorylation (pS296) by immunoblotting and densitometry, HT29 cells; assay type: cell-based; design: Thermal response profile of Chk1 in HT29 cells detected by immunofluorescent imaging with the EP691Y antibody; endogenous in cells; host or cells: HT29; settings: for IC50: HT29, 10 min
Method: (§1) Immunoblotting was conducted as previously described.

Chk1 [3] = target: T1, Chk1; assay: Nuclear pChk1 (S317, S345) by single cell immunofluorescence, HT29 cells; assay type: cell-based; design: Thermal response profile of Chk1 in HT29 cells detected by immunofluorescent imaging with the EP691Y antibody; endogenous in cells; host or cells: HT29; settings: HT29, 2.5 mM for 18 hours
Method: (§2) Single cell immunofluorescent imaging was conducted as previously described in CellCarrier 96WP or CellCarrier Ultra 96WP (6005550 or 6055300, Perkin Elmer) and imaged on an Operetta high content imager (Perkin Elmer) using a 10, 20 or 40x objective then analyzed using Harmony software (Perkin Elmer).

HT29 cells = assay: S-phase arrest by Hoechst 33342 imaging, HT29 cells; assay type: cell-based, human; settings: HT29, 2.5 mM for 18 hours, n = 6 wells ± SD
Method: as §2

Chk1 [4] = target: T1, Chk1; design: endogenous in cells; settings: U2OS cells; read-out: CETSA classic EC50; cited from earlier work
Chk1 [5] = target: T1, Chk1; assay: Chk1 autophosphorylation (pS296) by immunoblotting and densitometry, U2OS cells; assay type: cell-based; settings: 10 min, identical cellular conditions to HCIF-CETSA (Fig 6E)
Method: as §1

Chk1 [6] = target: T1, Chk1; assay: HCIF-CETSA (CETSA by immunofluorescence), low well volume heating, HT29 cells; assay type: cell-based; design: Thermal response profile of Chk1 in HT29 cells detected by immunofluorescent imaging with the EP691Y antibody; endogenous in cells; host or cells: HT29; settings: HT29, 10 minute incubation, 50 μL media, 51°C (Fig 6D)
Chk1 [7] = target: T1, Chk1; design: Thermal response profile of Chk1 in HT29 cells detected by immunofluorescent imaging with the EP691Y antibody; endogenous in cells; host or cells: HT29; settings: HT29 cells; read-out: CETSA classic EC50; cited from earlier work
Chk1 [8] = target: T1, Chk1; assay: Chk1 thermal stability by immunofluorescence, sealed plate submerged in water bath, HT29 cells; assay type: cell-based; design: Thermal response profile of Chk1 in HT29 cells detected by immunofluorescent imaging with the EP691Y antibody; endogenous in cells; host or cells: HT29; settings: HT29, 10 μM for 30 minutes, HU treated or untreated, sealed plate 55°C
From the text: (§3) Plates were heated as follows: (i) sealed with adhesive aluminum PCR plate foil and then floated or submerged in a water bath (Grant Instruments W14) containing water pre-heated to the desired temperature or (ii) 1 L of DPBS containing magnesium and calcium (D1283, Sigma) was placed in a clean water bath (SUB6, Grant Instruments) and heated to the required temperature. The media was removed from the wells of the CellCarrier plate and the plate submersed in the DPBS so that all wells were full of DPBS and the plate was not touching the bottom of the water bath. The plate was incubated in the DPBS for 3 minutes, removed, the hot DPBS removed and replaced with 100 μL room temperature DPBS and then incubated at room temperature for 5 minutes. In some experiments, the DPBS was substituted for live cell imaging solution (LCIS, 20 mM Hepes, 140 mM NaCl, 2.5 mM KCl, 1.8 mM CaCl2, 1.0 mM MgCl2, pH 7.4).
as §2

Chk1 [9] = target: T1, Chk1; assay: Chk1 thermal stability by immunofluorescence, PBS immersion heating, HT29 cells; assay type: cell-based; design: Thermal response profile of Chk1 in HT29 cells detected by immunofluorescent imaging with the EP691Y antibody; endogenous in cells; host or cells: HT29; settings: HT29, 1–10 μM for 30 minutes, heated to 46, 49, 52 or 55°C
From the text: as §3, §2

Chk1 [10] = target: T1, Chk1; assay: HCIF-CETSA (CETSA by immunofluorescence), low well volume heating, U2OS cells; assay type: cell-based; settings: 10 min
Method: 10 000 cells were plated per well of a CellCarrier Ultra 96WP (6055300, Perkin Elmer) and allowed to adhere overnight. Compounds were serially diluted in DMSO to 200-times the final assay concentration then diluted 1:200 in media (without FCS). The cell media was removed and replaced with 25 μL of compound in media and incubated at 37°C, 5% CO2 for 10 minutes. The plate was sealed with an aluminum plate seal and heated by floating in a pre-heated water bath (Grant Instruments W14) for 3 minutes. 75 μL of room temperature media (without FCS or compound) was added and the plate incubated at room temperature for 5 minutes. Cells were fixed by the addition of 100 μL paraformaldehyde (7.4% in PBS) at room temperature for 15 minutes. Cells were washed 3 times with PBS and Chk1 detected with anti-Chk1 rabbit EP691Y monoclonal antibody (Ab40866, Abcam) and an AlexaFluor488 anti-rabbit secondary antibody (A-11034, Thermo Fisher Scientific). Plates were imaged on an Operetta high content imager using a 20x objective and analyzed using Harmony software.

[11] = HT29, 0–40 μM inhibitor, 10 min, 49°C (Fig 8A), read-out: EC50, decrease in nuclear Chk1 fluorescence following heating

N#Cc1cc2c(cn1)[nH]c1ncc(-c3ccc(CN4CCCCC4)cc3)cc12 [GNE-900, reference compound]
EC50 (Chk1 [1]; [11]): 1.3 ± 0.3 µM
IC50 (Chk1 [2]; same dilution series and conditions as HCIF-CETSA (Fig 8B), read-out: IC50, S296 phosphorylation): 0.5 µM

NC(=O)NO [HU, Hydroxyurea]
Increase in nuclear Chk1 pS317 (Chk1 [3]): 1.9 fold
Increase in nuclear Chk1 pS345 (Chk1 [3]): 1.6 fold
Cells exhibiting evidence of S-phase arrest (HT29 cells): 71.4 ± 0.7%

CC(C)C[C@@H](C=O)NC(=O)[C@H](CC(C)C)NC(=O)[C@H](CC(C)C)NC(=O)OCc1ccccc1 [MG-132, reference compound] (Cbz-Leu-Leu-Leu-aldehyde)
Effect on temperature induced decrease in Chk1 nuclear fluorescence (Chk1 [1]; HT29, 5 μM for 2 hours, then DMSO or 3 μM V158411, 49 or 52°C): did not block

CN(C)CC(C)(C)COc1ccc2[nH]c(-c3cc(NC(=O)c4cnn(Cc5ccccc5)c4)c[nH]c3=O)cc2c1 [V158411]
EC50 (Chk1 [1]; [11]): 2 ± 0.9 µM
EC50 (Chk1 [1]; HT29, 10 min, 49°C (Fig 6B), read-out: HCIF-CETSA EC50, mean of three independent experiments): 1.7 ± 0.4 µM
EC50 (Chk1 [1]; HT29, 10 min, 49°C (Fig 6B), read-out: HCIF-CETSA EC50, single values of three independent experiments): 1.9 µM and 1.2 µM
EC50 (Chk1 [1]; HT29, 10 min pre-incubation, heated to 46°C (Fig 6A), read-out: EC50, reduction in Chk1 nuclear immunofluorescence): 1.9 µM
EC50 (Chk1 [1]; HT29, 10 min pre-incubation, heated to 49°C (Fig 6A), read-out: EC50, reduction in Chk1 nuclear immunofluorescence): 1.9 µM
EC50 (Chk1 [1]; HT29, 10 min pre-incubation, heated to 52°C (Fig 6A), read-out: EC50, reduction in Chk1 nuclear immunofluorescence): 2.5 µM
EC50 (Chk1 [4]): 2.3 ± 1.2 µM
IC50 (Chk1 [5]): ~0.11 µM
EC50 (Chk1 [6]): 1 µM
EC50 (Chk1 [7]): 3.3 ± 3.4 µM
Effect on Chk1 autophosphorylation (Chk1 [2]; HT29, 0–10 μM for 30 minutes, HU treated and untreated cells (Fig 4B)): inhibited Chk1 autophosphorylation
IC50 (Chk1 [2]; identical cellular conditions to HCIF-CETSA (Fig 6E), read-out: IC50, Chk1 autophosphorylation (pS296)): ~0.16 µM
Effect on thermostabilization of total Chk1 or phosphorylated Chk1 (Chk1 [8]): no effect
Effect on mean nuclear Chk1 intensity after PBS immersion heating (Chk1 [9]): did not alter the mean nuclear Chk1 intensity
EC50 (Chk1 [10]; U2OS, 25 μL media, 49°C (Fig 6C)): 1.4 ± 0.3 µM
Effect on mean nuclear Chk1 fluorescence in unheated cells (Chk1 [10]; unheated U2OS, 0–20 μM): increased the mean nuclear Chk1 fluorescence
